{
  "source": "ChEMBL document CHEMBL4334495",
  "about": "“Design and Biological Evaluation of m-Xylene Thioether-Stapled Short Helical Peptides Targeting the HIV-1 gp41 Hexameric Coiled-Coil Fusion Complex” (J Med Chem, 2019)",
  "key": {"[1]": {"assay": "Metabolic stability in rat kidney homogenates assessed as parent compound remaining at 3 to 100 uM after 4 hrs by RP-HPLC analysis", "assay_type": "ADME, tissue-based", "conditions": "read-out: Stability"}, "[2]": {"test_system": "Human immunodeficiency virus 1", "assay": "(§1) Ratio of EC50 for antiviral activity against R5 tropic HIV-1 subtype-B Bal infected in human MT2 cells or CEMx174 5.25 M7 cells in absence of HP23 to EC50 for antiviral activity against R5 tropic HIV-1 subtype-B Bal infected in human MT2 cells or CEMx174 5.25 M7 cells at 12:1 compound to HP23 ratio", "assay_type": "functional, HIV-1 group M"}, "[3]": {"test_system": "Human immunodeficiency virus 1", "assay": "Antiviral activity against X4 tropic HIV-1 subtype-B 3B infected in human MT2 cells or CEMx174 5.25 M7 cells assessed as reduction in p24 Gag protein production at 6:1 compound to HP23 ratio measured at 4 days post-infection by ELISA", "assay_type": "functional, cell-based, HIV-1 group M", "conditions": "Human immunodeficiency virus 1, 3B, 96 h"}, "[4]": {"test_system": "Human immunodeficiency virus 1", "assay": "Synergistic antiviral activity against T2635 resistant HIV1 LAI harboring Q66R mutant infected in human MT2 cells or CEMx174 5.25 M7 cells assessed as reduction in p24 Gag protein production by measuring combination index at 25:1 compound ratio measured at 4 days post infection by ELISA", "assay_type": "functional, M:B_Lai"}, "[5]": {"test_system": "Human immunodeficiency virus 1", "assay": "(§2) Antiviral activity against T20 resistant HIV1 NL4-3 harboring with V38E/N42S mutant infected in human MT2 cells or CEMx174 5.25 M7 cells assessed as reduction in p24 Gag protein production at 3500:1 compound to HP23 ratio measured at 4 days post-infection by ELISA", "assay_type": "functional, organism-based"}, "[6]": {"assay": "Metabolic stability in rat plasma assessed as parent compound remaining at 3 to 100 uM after 4 hrs by RP-HPLC analysis", "assay_type": "ADME, cell-free", "conditions": "read-out: Stability"}, "[7]": {"test_system": "Human immunodeficiency virus 1", "assay": "as §2, with “Synergistic antiviral” for “Antiviral”, “V38E/N42T” for “V38E/N42S”, “production by measuring combination index” for “production”, “300:1” for “3500:1”", "assay_type": "functional"}, "[8]": {"test_system": "Human immunodeficiency virus 1", "assay": "Antiviral activity against R5 tropic HIV-1 subtype-B Bal infected in human MT2 cells or CEMx174 5.25 M7 cells assessed as reduction in p24 Gag protein production at 12:1 ratio of compound to HP23 measured at 4 days post-infection by ELISA", "assay_type": "functional, cell-based, HIV-1 group M", "conditions": "Human immunodeficiency virus 1, Bal, 96 h"}, "[9]": {"target": "Envelope glycoprotein gp160 (Human immunodeficiency virus 1) (UniProt Q6QLK5)", "sequence (Q6QLK5 1-814)": "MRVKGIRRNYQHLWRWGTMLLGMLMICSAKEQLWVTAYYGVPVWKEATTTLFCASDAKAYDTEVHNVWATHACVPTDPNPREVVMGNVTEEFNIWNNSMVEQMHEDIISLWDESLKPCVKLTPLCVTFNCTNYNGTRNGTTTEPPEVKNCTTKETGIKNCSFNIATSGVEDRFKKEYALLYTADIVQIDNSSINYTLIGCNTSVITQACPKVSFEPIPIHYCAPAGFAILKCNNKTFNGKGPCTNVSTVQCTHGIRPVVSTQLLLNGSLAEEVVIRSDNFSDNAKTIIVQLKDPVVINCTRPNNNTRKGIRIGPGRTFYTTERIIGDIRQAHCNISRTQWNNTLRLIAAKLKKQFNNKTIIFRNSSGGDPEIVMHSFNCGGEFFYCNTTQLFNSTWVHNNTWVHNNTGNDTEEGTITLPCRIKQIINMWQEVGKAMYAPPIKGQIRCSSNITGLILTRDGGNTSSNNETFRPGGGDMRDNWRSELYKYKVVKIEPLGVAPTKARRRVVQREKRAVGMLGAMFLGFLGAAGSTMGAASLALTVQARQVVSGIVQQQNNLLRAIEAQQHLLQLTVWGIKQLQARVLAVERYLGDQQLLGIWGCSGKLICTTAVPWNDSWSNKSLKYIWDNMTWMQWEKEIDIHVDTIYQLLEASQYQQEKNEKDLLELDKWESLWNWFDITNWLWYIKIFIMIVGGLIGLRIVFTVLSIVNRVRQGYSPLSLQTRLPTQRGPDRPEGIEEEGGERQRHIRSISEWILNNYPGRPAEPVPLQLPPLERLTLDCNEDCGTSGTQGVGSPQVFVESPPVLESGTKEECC", "assay": "Synergistic inhibition of HIV1 gp41-induced cell-cell fusion between viral envelope expressing human HL2/3 cells to CD4/CCR5 receptor expressing TZM-bl cells assessed as combination index at 2:1 compound to HP23 ratio incubated for 6 hrs by luciferase reporter gene assay"}, "[10]": {"target": "Envelope glycoprotein gp160 (Human immunodeficiency virus 1) (UniProt Q6QLK5)", "assay": "Binding affinity to HIV1 GP41 using GP41 NHR derived N36 peptide assessed as formation of secondary structure at 10 uM incubated for 30 mins by CD spectroscopy"}, "[11]": {"test_system": "Human immunodeficiency virus 1", "assay": "Antiviral activity against T2635 resistant HIV1 LAI harboring Q66R mutant infected in human MT2 cells or CEMx174 5.25 M7 cells assessed as reduction in p24 Gag protein production at 25:1 ratio of compound to HP23 measured at 4 days post infection by ELISA", "assay_type": "functional, organism-based, M:B_Lai"}, "[12]": {"target": "Envelope glycoprotein gp160 (Human immunodeficiency virus 1) (UniProt Q6QLK5)", "assay": "Binding affinity to HIV1 GP41 using GP41 NHR derived N36 peptide assessed as melting temperature at 10 uM incubated for 30 mins by CD spectroscopy"}, "[13]": {"test_system": "Human immunodeficiency virus 1", "assay": "Synergistic antiviral activity against HIV1 NL4-3 infected in human MT2 cells or CEMx174 5.25 M7 cells assessed as reduction in p24 Gag protein production by measuring combination index at 20:1 compound to HP23 ratio measured at 4 days post-infection by ELISA", "assay_type": "functional"}, "[14]": {"test_system": "Human immunodeficiency virus 1", "assay": "Antiviral activity against X4 tropic HIV-1 subtype-B 3B infected in human MT2 cells or CEMx174 5.25 M7 cells assessed as reduction in p24 Gag protein production at 6:1 ratio of hCS6ERE to compound measured at 4 days post-infection by ELISA", "assay_type": "functional, cell-based, HIV-1 group M", "conditions": "Human immunodeficiency virus 1, 3B, 96 h"}, "[15]": {"test_system": "Human immunodeficiency virus 1", "assay": "as §1, with “T20 resistant HIV1 NL4-3 harboring with V38E/N42S mutant” for “R5 tropic HIV-1 subtype-B Bal”, “hCS6ERE” for “HP23”, “7000:1 hCS6ERE to” for “12:1”, “compound” for “compound to HP23”", "assay_type": "functional"}, "[16]": {"test_system": "Human immunodeficiency virus 1", "assay": "Antiviral activity against T20 resistant HIV1 NL4-3 harboring with V38E/N42T mutant infected in human MT2 cells or CEMx174 5.25 M7 cells assessed as reduction in p24 Gag protein production at 150:1 hCS6ERE to compound ratio measured at 4 days post-infection by ELISA", "assay_type": "functional, organism-based"}, "[17]": {"test_system": "Human immunodeficiency virus 1", "assay": "(§3) Ratio of EC50 for antiviral activity against T2635 resistant HIV1 LAI harboring Q66R mutant infected in human MT2 cells or CEMx174 5.25 M7 cells in absence of hCS6ERE to antiviral activity against T2635 resistant HIV1 LAI harboring Q66R mutant infected in human MT2 cells or CEMx174 5.25 M7 cells at 50:1 ratio of hCS6ERE to compound", "assay_type": "functional, M:B_Lai"}, "[18]": {"test_system": "Human immunodeficiency virus 1", "assay": "as §3, with “25:1” for “50:1”", "assay_type": "functional, M:B_Lai"}, "[19]": {"test_system": "Human immunodeficiency virus 1", "assay": "Antiviral activity against T20 resistant HIV1 NL4-3 harboring with V38E/N42S mutant infected in human MT2 cells or CEMx174 5.25 M7 cells assessed as reduction in p24 Gag protein production at 3500:1 hCS6ERE to compound ratio measured at 4 days post-infection by ELISA", "assay_type": "functional, organism-based"}, "[20]": {"test_system": "Human immunodeficiency virus 1", "assay": "Antiviral activity against T20 resistant HIV1 NL4-3 harboring with V38E/N42S mutant infected in human MT2 cells or CEMx174 5.25 M7 cells assessed as reduction in p24 Gag protein production at 14000:1 hCS6ERE to compound ratio measured at 4 days post-infection by ELISA", "assay_type": "functional, organism-based"}, "[21]": {"test_system": "Human immunodeficiency virus 1", "assay": "Antiviral activity against T20 resistant HIV1 NL4-3 harboring with V38E/N42T mutant infected in human MT2 cells or CEMx174 5.25 M7 cells assessed as reduction in p24 Gag protein production at 600:1 hCS6ERE to compound ratio measured at 4 days post-infection by ELISA", "assay_type": "functional, organism-based"}, "[22]": {"test_system": "Human immunodeficiency virus 1", "assay": "Ratio of EC50 for antiviral activity against HIV1 NL4-3 infected in human MT2 cells or CEMx174 5.25 M7 cells in absence of hCS6ERE to EC50 for antiviral activity against HIV1 NL4-3 infected in human MT2 cells or CEMx174 5.25 M7 cells at 5:1 hCS6ERE to compound ratio", "assay_type": "functional"}, "[23]": {"test_system": "Human immunodeficiency virus 1", "assay": "as §1, with “hCS6ERE” for “HP23”, “6:1 ratio of hCS6ERE to” for “12:1”, “compound” for “compound to HP23 ratio”", "assay_type": "functional, HIV-1 group M"}, "[24]": {"test_system": "Human immunodeficiency virus 1", "assay": "Antiviral activity against HIV1 NL4-3 infected in human MT2 cells or CEMx174 5.25 M7 cells assessed as reduction in p24 Gag protein production at 10:1 hCS6ERE to compound ratio measured at 4 days post-infection by ELISA", "assay_type": "functional, organism-based", "conditions": "Human immunodeficiency virus 1, NL4-3, 96 h"}},
  "note": "Active and inactive are the calls of the source. No cut-off for these calls is given here. Starred links: 1 amine or outer side, 2 acyl side, 3 side chain; linkers in the order of their positions; H or OH if unused. Positions of bridges follow the written chain, without caps; N, C: chain ends. Non-standard residues stand in square brackets, D forms with d. Residues, ends and D or L forms follow the SMILES beside them. ξ: configuration not given here. mXylylene = c1cc(C[*:1])cc(C[*:2])c1; ξhCys = NC(CCS)C(=O)O",
  "data": [
    {"compound": "CC[C@H](C)[C@H](NC(C)=O)C(=O)N[C@@H](CCC(=O)O)C(=O)N[C@@H](CCC(=O)O)C(=O)N[C@@H](CC(C)C)C(=O)N[C@H](C(=O)NC1CCSCc2cccc(c2)CSCCC(C(=O)N[C@@H](CCC(N)=O)C(=O)N[C@@H](CCC(N)=O)C(=O)N[C@@H](CCCNC(=N)N)C(=O)N[C@@H](CCCCN)C(=O)N[C@@H](CC(N)=O)C(=O)N[C@@H](CCC(=O)O)C(=O)N[C@@H](CCC(=O)O)C(=O)N[C@@H](C)C(=O)N[C@@H](CC(C)C)C(=O)N[C@@H](CCCNC(=N)N)C(=O)N[C@@H](CCC(=O)O)C(=O)N[C@@H](CC(C)C)C(N)=O)NC(=O)[C@H](CCC(N)=O)NC(=O)[C@H](C)NC(=O)[C@H](C)NC1=O)[C@@H](C)CC", "note": "(some centres undefined) (Ac-IEELI[ξhCys]AAQ[ξhCys]QQRKNEEALREL-NH2; linker 6-10 via mXylylene)", "values": [
      {"measurement": "remaining at 4 h", "setting": "[1]", "result": 15.8, "unit": "%"},
      {"measurement": "Ratio EC50", "setting": "[2]", "result": 2.6},
      {"measurement": "EC50", "setting": "[3]", "result": 7.6, "unit": "nM"},
      {"measurement": "CI", "setting": "[4]", "result": 0.8},
      {"measurement": "EC50", "setting": "[5]", "result": 2040, "unit": "nM"},
      {"measurement": "remaining at 4 h, up to 100 µM", "setting": "[6]", "result": 100, "unit": "%"},
      {"measurement": "CI", "setting": "[7]", "result": 0.8},
      {"measurement": "EC50", "setting": "[8]", "result": 6, "unit": "nM"},
      {"measurement": "CI", "setting": "[9]", "result": 0.8},
      {"measurement": "Activity", "setting": "[10]", "result": "Active"},
      {"measurement": "EC50", "setting": "[11]", "result": 39.5, "unit": "nM"},
      {"measurement": "Tm", "setting": "[12]", "result": 57.6, "unit": "°C"},
      {"measurement": "CI", "setting": "[13]", "result": 0.8}
    ]},
    {"compound": "H-EMTWEEWEKKIEEYTKKIEEILK-OH", "values": [
      {"measurement": "EC50", "setting": "[14]", "result": 1.3, "unit": "nM"},
      {"measurement": "Ratio EC50", "setting": "[15]", "result": 3.5},
      {"measurement": "EC50", "setting": "[16]", "result": 2.2, "unit": "nM"},
      {"measurement": "Ratio EC50", "setting": "[17]", "result": 9.6},
      {"measurement": "Ratio EC50", "setting": "[18]", "result": 3.2},
      {"measurement": "EC50", "setting": "[19]", "result": 0.6, "unit": "nM"},
      {"measurement": "EC50", "setting": "[20]", "result": 0.2, "unit": "nM"},
      {"measurement": "EC50", "setting": "[21]", "result": 0.8, "unit": "nM"},
      {"measurement": "Ratio EC50", "setting": "[22]", "result": 3.8},
      {"measurement": "Ratio EC50", "setting": "[23]", "result": 1.9},
      {"measurement": "EC50", "setting": "[24]", "result": 0.9, "unit": "nM"}
    ]}
  ]
}
